Measured values from patent publication US4201725A, “Secondary amines” (priority 1974, dated 1980).
Entries after “also recorded” stand apart in the source; their conditions may differ. Read-outs that look alike come from different tables or passages of the source.

Experiments:
[1] = tested on: reserpine-induced catatonia; assay: Inhibition of reserpine-induced catatonia (preventive, oral compound 30 min before reserpine); assay type: in vivo, rat (male, OFA strain); conditions: rat, in vivo
Procedure: After sufficient doses of reserpine have been administered to the rat, a series of symptoms occur, more particularly ptosis, catatonia and a drop in central temperature. These symptoms are caused by the depletion of the intragranular reserve pool of biogenetic amines at the synaptic terminals.
An oral dose of the compound to be studied in aqueous solution was administered to batches of 10 male rats of the OFA strain weighing about 150 to 200 g. Thirty minutes later a dose of 5 mg/kg of reserpine was given by intraperitoneal route. Three hours after the injection of reserpine, the animals were suspended by the four paws to a horizontally stretched wire fixed at 15 cm from the ground. The catatonia animals were those which maintained the position so given for at least 30 seconds. […] The maximum score was therefore 10 per batch. An identical trial was undertaken with control animals which received reserpine but none of the compounds being studied.

catalepsy = assay: Prochlorperazine-induced catalepsy (crossing of homolateral paws); assay type: in vivo, rat; conditions: 5 mg/kg oral 30 min before prochlorperazine i.p.; 3 h after injection
Procedure: Additional trials were carried out on rats with Compound 1 and amantadine. These trails involved catalepsy as evidenced by the crossing of the animal's homolateral paws.

[2] = tested on: reserpine-induced catatonia; assay: Suppression of reserpine-induced catatonia (curative treatment); assay type: in vivo, rat (male, OFA strain); conditions: 2.5 and 5 mg/kg oral vs 80 mg/kg amantadine
Procedure: Batches of 5 male rats of the OFA strain, weighing 150 to 200 g were given 5 mg/kg of reserpine by intraperitoneal route. One hour and 45 minutes later, namely when the animals were in a state of catatonia, an aqueous dose of the compound to be studied was administered by oral route to all the animals with the exception of the control group.
The progress of the catatonia was then noted following the scale used in the tests described hereabove.
The maximum score was thus 5 per batch which means that all the animals of the batch were considered to be still in a state of catatonia.

[3] = tested on: neuroleptic-induced catatonia; assay: Suppression of neuroleptic (prochlorperazine)-induced catatonia (curative treatment); assay type: in vivo, rat (male, OFA strain); conditions: 5 mg/kg vs 80 mg/kg amantadine
Procedure: Batches of 5 male rats of the OFA strain were given 12.5 mg/kg of prochlorperazine by intraperitoneal route. Fifty-five minutes later, an oral dose in aqueous solution of the compound to be studied was administered to all the animals with the exception of the control group. The progress of the catatonia was noted following the same scale as that used in the tests described above.

[4] = tested on: isolated duodenum of the rat; assay: MAGNUS test: cholinolytic/spasmolytic activity on acetylcholine spasm in vitro
Source text: This test consists in determining the dose of acetylcholine which, when added to the bath, provokes spasm of the isolated duodenum of the rat. The next step consists in determining the dose of the compound under study which, when added to the bath 30 seconds before the acetylcholine, reduces the spasm.

[5] = tested on: cholinergic effects of tremorine; assay: Anti-tremorine test in vivo; design: species or system mice (male, OF1 strain)
Procedure: When injected into mice, tremorine produces peripheral effects i.e. weeping, sweating, salivation and diarrhoea and central effects i.e. tremor and akinesia. Such effects are due to an increase in the amount of intracerebral acetylcholine and serotonine.
[…] Thirty minutes later a dose of 10 mg/kg of tremorine was injected by intraperitoneal route and, at different times after this injection, note was taken of the cholinergic effects on each animal in accordance with the following scale:

[6] = Spasmolytic activity in vivo; conditions: at antiparkinson doses, well below the toxic dose
[7] = SPERBER et al., J. Amer. Chem. Soc., 71, 3352 (1949); cited from earlier work
[8] = SPERBER et al., J. Amer. Chem. Soc., 71, 3352 (1949); cited from earlier work; remark: listed apart in the source
[9] = tested on: arterial pressure and nictitating membrane (norepinephrine); assay: Influence on peripheral noradrenergic phenomena (norepinephrine, anaesthetized cat); conditions: for Contractile reaction of the nictitating membrane without electric stimulation: at 0 mg/kg: 0; for Contractile reaction of the nictitating membrane with electric stimulation: at 0 mg/kg: Compound 1 17, amantadine 20; for Increase in arterial pressure after injection of norepinephrine: at 0 mg/kg: Compound 1 26, amantadine 28
Procedure: A cat, anaesthetized with pentobarbital, received a sufficient dose of norepinephrine to increase arterial pressure but not sufficient to cause contraction of the nictitating membrane. Arterial pressure was measured at the carotid immediately after administration of the dose of norepinephrine.

Compound: CCCC(N)(CCC)CCC [Compound 1]
- activity in pharmacological trials (in words) [1]: marked degree of activity
- inhibition of the catalepsy (catalepsy): complete inhibition of the catalepsy
- suppression of reserpine-induced catatonia (in words) [2]: suppresses reserpine-induced catatonia more rapidly than a dose of 80 mg/kg of amantadine
- action against neuroleptic-induced catatonia (in words) [3]: acts against neuroleptic-induced catatonia more rapidly than does a dose of 80 mg/kg of amantadine
- spasmolytic / cholinolytic activity in vitro (in words) [4]: virtually non-existent in comparison with that of atropine; also recorded: extremely weak cholinolytic action
- spasmolytic / cholinolytic activity in vitro (in words) ([4]; listed as tri-n-propylmethylamine): very weak, in fact practically non-existent
- antitremorine properties (in words) ([5]; 5 mg/kg Compound 1, 40 mg/kg amantadine): devoid of antitremorine properties
- central cholinergic effects (normal and provoked tremor) ([5]; 5 mg/kg oral, identical to the peripheral score of 4): Identical results
- cholinolytic properties in vivo (in words) ([5]; therapeutic doses): absence of cholinolytic properties
- spasmolytic activity in vivo (in words) [6]: non-existent
- spasmolytic activity (in words) [7]: less spasmolytic
- toxicity (in words) [8]: more toxic than the corresponding trialkylethylamines
- potentiation of norepinephrine / peripheral adrenergic effects (in words) ([9]; cat, i.v.): does not potentiate the effects either of exogenous norepinephrine or of endogenous norepinephrine
- Contractile reaction of the nictitating membrane without electric stimulation ([9]; cumulative dose 0.1 mg/kg i.v.): 0 mm
- Contractile reaction of the nictitating membrane with electric stimulation ([9]; cumulative dose 0.1 mg/kg i.v.): 15 mm
- Increase in arterial pressure after injection of norepinephrine ([9]; cumulative dose 0.1 mg/kg i.v.): 18 mm Hg
- Contractile reaction of the nictitating membrane without electric stimulation ([9]; cumulative dose 1 mg/kg i.v.): 0 mm
- Contractile reaction of the nictitating membrane with electric stimulation ([9]; cumulative dose 1 mg/kg i.v.): 16 mm
- Increase in arterial pressure after injection of norepinephrine ([9]; cumulative dose 1 mg/kg i.v.): 25 mm Hg
- Contractile reaction of the nictitating membrane without electric stimulation ([9]; cumulative dose 3 mg/kg i.v.): 0 mm
- Contractile reaction of the nictitating membrane with electric stimulation ([9]; cumulative dose 3 mg/kg i.v.): 17 mm
- Increase in arterial pressure after injection of norepinephrine ([9]; cumulative dose 3 mg/kg i.v.): 29 mm Hg
- Contractile reaction of the nictitating membrane without electric stimulation ([9]; cumulative dose 5 mg/kg i.v.): 0 mm
- Contractile reaction of the nictitating membrane with electric stimulation ([9]; cumulative dose 5 mg/kg i.v.): 16 mm
- Increase in arterial pressure after injection of norepinephrine ([9]; cumulative dose 5 mg/kg i.v.): 25 mm Hg
- Contractile reaction of the nictitating membrane without electric stimulation ([9]; cumulative dose 10 mg/kg i.v.): 0 mm
- Contractile reaction of the nictitating membrane with electric stimulation ([9]; cumulative dose 10 mg/kg i.v.): 12 mm
- Increase in arterial pressure after injection of norepinephrine ([9]; cumulative dose 10 mg/kg i.v.): 22 mm Hg
